According to PMC13070491, “Single-nucleus transcriptomics, pharmacokinetics, and pharmacodynamics of CDK4/6 and mTOR inhibition in a Phase 0/1 trial of recurrent high-grade glioma” (Neuro-Oncology, 2025):

Tested on: GB126, GB239 and GB86 patient-derived cell lines
Assay: In vitro single-cell RNA sequencing, analyses across the cell lines (pseudobulk differential gene expression, GSEA, non-cycling cells)
Format: cell-based, human
Protocol: Patient-derived glioma stem cell lines (GSCs; GB126, GB86, and GB239) were established from resected GBM tumor tissue. Cell lines were genetically profiled for mutations and copy number aberrations using the IvySeq custom gene panel. […] GB239 was derived from a tumor sample included in this Phase 0 trial (tumor sample: 100-0039). All human GSCs were cultured as described previously.[12]
Following the fifth day of drug exposure, cells were harvested, cryopreserved to be processed at a later point, or immediately processed for single-cell RNA sequencing (10x Genomics, 3’ version 3). The single-cell RNA sequencing data were then processed via cellranger count and Seurat. Briefly, cells were filtered out based on the following criteria: minimum number of genes detected >500 and <10 000 with a maximum percentage of mitochondrial genes set to 10%. Statistical assessment was made between the malignant proportions of each cell state using a 2-sided paired t-test.
Descriptive statistics of the clinical data are included in Table 1. Comparisons between groups were conducted using a 2-sided or paired 2-sided t-test, where indicated. P < .05 was considered significant. Multiple hypothesis test corrections (ie, false discovery rate correction) were applied for snRNAseq pseudobulk differential expression analysis.

Structure (SMILES): CN(C)C(=O)c1cc2cnc(Nc3ccc(N4CCNCC4)cn3)nc2n1C1CCCC1 [Ribociclib, ribociclib]
- CDK4 gene expression following ribociclib treatment (5 days vs DMSO, single-cell RNAseq): reduced but remained high
- NPC-like proportion, cells not actively cycling (ribociclib vs DMSO 5 days, paired t-test P = 1.4E-06): decrease
- AC-like proportion, cells not actively cycling (ribociclib vs DMSO 5 days, paired t-test P = 2.6E-03): increase
